# Results as given in PubChem BioAssay (NCI).
#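 Grown in 96-well plates, cells were treated for 48 hours with each compound at five concentrations. Insufficient inhibition: endpoint recorded as highest concentration tested. The concentration for full growth arrest is given as TGI.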
# Tests used:
# Assay in all cases: inhibition of tumour cell growth, NCI panel, 48 h
# [1] = tested on: COLO 205 colon
# [2] = tested on: HL-60(TB) leukemia
# [3] = tested on: M19-MEL melanoma
# [4] = tested on: MALME-3M melanoma
# [5] = tested on: SNB-75 CNS
# [6] = tested on: EKVX NSCLC
# [7] = tested on: XF 498 CNS
# [8] = tested on: SK-OV-3 ovarian
# [9] = tested on: RPMI-8226 leukemia
# [10] = tested on: 786-0 renal
# [11] = tested on: MOLT-4 leukemia
# [12] = tested on: A498 renal
# [13] = tested on: CAKI-1 renal
# [14] = tested on: SK-MEL-5 melanoma
# [15] = tested on: IGROV1 ovarian
# [16] = tested on: UO-31 renal
# [17] = tested on: HCT-15 colon
# [18] = tested on: SNB-78 CNS
# [19] = tested on: HOP-62 NSCLC
# [20] = tested on: LXFL 529 NSCLC
# [21] = tested on: SNB-19 CNS
# [22] = tested on: SK-MEL-28 melanoma
# [23] = tested on: K-562 leukemia
# [24] = tested on: M14 melanoma
# [25] = tested on: TK-10 renal
# [26] = tested on: SK-MEL-2 melanoma
# [27] = tested on: OVCAR-4 ovarian
# [28] = tested on: OVCAR-5 ovarian
# [29] = tested on: RXF 393 renal
# [30] = tested on: DMS 114 small cell lung
# [31] = tested on: DMS 273 small cell lung
# [32] = tested on: NCI-H522 lung
# [33] = tested on: A549 NSCLC
# [34] = tested on: UACC-62 melanoma
# [35] = tested on: NCI-H23 lung
# [36] = tested on: UACC-257 melanoma
# [37] = tested on: KM12 colon
# [38] = tested on: ACHN renal
# [39] = tested on: HT29 colon
# [40] = tested on: U251 CNS
# [41] = tested on: SF-539 CNS
# [42] = tested on: SN12C renal
# [43] = tested on: NCI-H460 lung
# [44] = tested on: SF-268 CNS
# [45] = tested on: OVCAR-8 ovarian
# [46] = tested on: HOP-92 NSCLC
# [47] = tested on: SW-620 colon
# [48] = tested on: CCRF-CEM leukemia
# [49] = tested on: HCT-116 colon
# [50] = tested on: HCC-2998 colon
# [51] = tested on: LOX IMVI melanoma
# [52] = tested on: DLD-1 colon
# [53] = tested on: SF-295 CNS
# [54] = tested on: OVCAR-3 ovarian
# [55] = tested on: HOP-18 NSCLC
# [56] = tested on: KM20L2 colon
# [57] = tested on: NCI-H226 lung
# [58] = tested on: SR leukemia
compound,measurement,setting,value
COC(=O)C1CC2CC(=NNC(N)=O)CC2C1 (stereo unspecified),TGI,[1],> 100 µM
same,TGI,[2],> 100 µM
same,TGI,[3],> 100 µM
same,TGI,[4],> 100 µM
same,TGI,[5],> 100 µM
same,TGI,[6],> 100 µM
same,TGI,[7],> 100 µM
same,TGI,[8],> 100 µM
same,TGI,[9],> 100 µM
same,TGI,[10],> 100 µM
same,TGI,[11],> 100 µM
same,TGI,[12],> 100 µM
same,TGI,[13],> 100 µM
same,TGI,[14],> 100 µM
same,TGI,[15],> 100 µM
same,TGI,[16],> 100 µM
same,TGI,[17],> 100 µM
same,TGI,[18],> 100 µM
same,TGI,[19],> 100 µM
same,TGI,[20],> 100 µM
same,TGI,[21],> 100 µM
same,TGI,[22],> 100 µM
same,TGI,[23],> 100 µM
same,TGI,[24],> 100 µM
same,TGI,[25],> 100 µM
same,TGI,[26],> 100 µM
same,TGI,[27],> 100 µM
same,TGI,[28],> 100 µM
same,TGI,[29],> 100 µM
same,TGI,[30],> 100 µM
same,TGI,[31],> 100 µM
same,TGI,[32],> 100 µM
same,TGI,[33],> 100 µM
same,TGI,[34],> 100 µM
same,TGI,[35],> 100 µM
same,TGI,[36],> 100 µM
same,TGI,[37],> 100 µM
same,TGI,[38],> 100 µM
same,TGI,[39],> 100 µM
same,TGI,[40],> 100 µM
same,TGI,[41],> 100 µM
same,TGI,[42],> 100 µM
same,TGI,[43],> 100 µM
same,TGI,[44],> 100 µM
same,TGI,[45],> 100 µM
same,TGI,[46],> 100 µM
same,TGI,[47],> 100 µM
same,TGI,[48],> 100 µM
same,TGI,[49],> 100 µM
same,TGI,[50],> 100 µM
same,TGI,[51],> 100 µM
same,TGI,[52],> 100 µM
same,TGI,[53],> 100 µM
same,TGI,[54],> 100 µM
CC/C=C\C/C=C\C/C=C\CCCCCCCC(=O)OCC(O)CO (stereo unspecified),TGI,[1],> 100 µM
same,TGI,[2],> 46 µM
same,TGI,[4],> 100 µM
same,TGI,[5],> 100 µM
same,TGI,[6],> 100 µM
same,TGI,[7],> 100 µM
same,TGI,[8],> 100 µM
same,TGI,[55],> 100 µM
same,TGI,[9],> 77.7 µM
same,TGI,[10],> 100 µM
same,TGI,[11],> 63.5 µM
same,TGI,[12],> 100 µM
same,TGI,[13],59.8 µM
same,TGI,[14],> 100 µM
same,TGI,[15],> 100 µM
same,TGI,[16],24.6 µM
same,TGI,[17],> 88 µM
same,TGI,[18],> 73.8 µM
same,TGI,[19],> 100 µM
same,TGI,[20],> 68.9 µM
same,TGI,[21],> 100 µM
same,TGI,[22],> 100 µM
same,TGI,[23],49 µM
same,TGI,[24],> 81.9 µM
same,TGI,[25],> 100 µM
same,TGI,[26],> 100 µM
same,TGI,[27],> 100 µM
same,TGI,[28],> 100 µM
same,TGI,[29],> 100 µM
same,TGI,[30],> 71 µM
same,TGI,[31],> 100 µM
same,TGI,[32],> 77.1 µM
same,TGI,[33],> 100 µM
same,TGI,[34],> 100 µM
same,TGI,[35],> 100 µM
same,TGI,[36],> 100 µM
same,TGI,[37],> 70.9 µM
same,TGI,[38],> 72.5 µM
same,TGI,[39],> 100 µM
same,TGI,[40],> 73.7 µM
same,TGI,[41],> 100 µM
same,TGI,[42],> 100 µM
same,TGI,[43],> 100 µM
same,TGI,[44],> 100 µM
same,TGI,[45],> 100 µM
same,TGI,[46],> 100 µM
same,TGI,[47],> 96.4 µM
same,TGI,[48],> 72.9 µM
same,TGI,[49],> 68.3 µM
same,TGI,[56],> 100 µM
same,TGI,[50],> 100 µM
same,TGI,[51],> 59.6 µM
same,TGI,[57],> 100 µM
same,TGI,[52],> 100 µM
same,TGI,[53],> 100 µM
same,TGI,[54],> 74.5 µM
same,TGI,[58],> 100 µM
